Measurements published in patent US11542240B2, “STK19 inhibitors for treatment of cancer” (TRUSTEES OF BOSTON UNIVERSITY, priority 2018, dated 2023).
Values joined by “and” are separate entries in the source; they are usually repeats but may differ in a detail not shown here. Identical values can stand only once. Like-named read-outs stand apart in the source and are kept apart here.

How the values were obtained:
Assay in all cases: biochemical
Format in all cases: binding
[1] = molecular target: panel of 468 diverse kinases (Homo sapiens, UniProt Q6ZWH5); conditions: NEK10; 1000 nM; read-out: Percent Control
[2] = tested on: panel of 468 diverse kinases
[3] = molecular target: panel of 468 diverse kinases (Homo sapiens, UniProt Q9P286); conditions: PAK7; 1000 nM; read-out: Percent Control
[4] = molecular target: panel of 468 diverse kinases (Homo sapiens, UniProt P29322); conditions: EPHA8; 1000 nM; read-out: Percent Control
[5] = molecular target: panel of 468 diverse kinases (Homo sapiens, UniProt P04626); conditions: ERBB2; 1000 nM; read-out: Percent Control
[6] = molecular target: panel of 468 diverse kinases (Homo sapiens, UniProt P42336, M1043I); conditions: PIK3CA(M1043I); 1000 nM; read-out: Percent Control
[7] = molecular target: panel of 468 diverse kinases (Mycobacterium tuberculosis, UniProt P9WI81); conditions: read-out: Percent Control
[8] = molecular target: panel of 468 diverse kinases (Homo sapiens, UniProt P27448); conditions: MARK3; 1000 nM; read-out: Percent Control
[9] = molecular target: panel of 468 diverse kinases (Homo sapiens, UniProt P21709); conditions: EPHA1; 1000 nM; read-out: Percent Control
[10] = molecular target: panel of 468 diverse kinases (Homo sapiens, UniProt P29597); conditions: 1000 nM, read-out: Percent Control
[11] = molecular target: panel of 468 diverse kinases (Homo sapiens, UniProt P36888, D835H); conditions: FLT3(D835H); 1000 nM; read-out: Percent Control
[12] = molecular target: panel of 468 diverse kinases (Homo sapiens, UniProt Q99759); conditions: MAP3K3; 1000 nM; read-out: Percent Control
[13] = molecular target: panel of 468 diverse kinases (Homo sapiens, UniProt P35590); conditions: TIE1; 1000 nM; read-out: Percent Control
[14] = molecular target: panel of 468 diverse kinases (Homo sapiens, UniProt P51957); conditions: NEK4; 1000 nM; read-out: Percent Control
[15] = molecular target: panel of 468 diverse kinases (Homo sapiens, UniProt P42685); conditions: FRK; 1000 nM; read-out: Percent Control
[16] = molecular target: panel of 468 diverse kinases (Homo sapiens, UniProt Q8WTQ7); conditions: GRK7; 1000 nM; read-out: Percent Control
[17] = molecular target: panel of 468 diverse kinases (Homo sapiens, UniProt P53779); conditions: JNK3; 1000 nM; read-out: Percent Control
[18] = molecular target: panel of 468 diverse kinases (Homo sapiens, UniProt P51955); conditions: NEK2; 1000 nM; read-out: Percent Control
[19] = molecular target: panel of 468 diverse kinases (Homo sapiens, UniProt P00533, DEL752-759); conditions: EGFR(S752-I759del); 1000 nM; read-out: Percent Control
[20] = molecular target: panel of 468 diverse kinases (Homo sapiens, UniProt O00238); conditions: BMPR1B; 1000 nM; read-out: Percent Control
[21] = molecular target: panel of 468 diverse kinases (Homo sapiens, UniProt Q9H0K1); conditions: SIK2; 1000 nM; read-out: Percent Control
[22] = molecular target: panel of 468 diverse kinases (Homo sapiens, UniProt O60285); conditions: ARK5; 1000 nM; read-out: Percent Control
[23] = molecular target: panel of 468 diverse kinases (Homo sapiens, UniProt P68400); conditions: CSNK2A1; 1000 nM; read-out: Percent Control
[24] = molecular target: panel of 468 diverse kinases (Homo sapiens, UniProt Q13188); conditions: MST2; 1000 nM; read-out: Percent Control
[25] = molecular target: panel of 468 diverse kinases (Homo sapiens, UniProt P19525); conditions: PRKR; 1000 nM; read-out: Percent Control
[26] = molecular target: panel of 468 diverse kinases (Homo sapiens, UniProt Q5S007); conditions: LRRK2; 1000 nM; read-out: Percent Control
[27] = molecular target: panel of 468 diverse kinases (Homo sapiens, UniProt Q15759); conditions: p38-beta; 1000 nM; read-out: Percent Control
[28] = molecular target: panel of 468 diverse kinases (Homo sapiens, UniProt P43405); conditions: SYK; 1000 nM; read-out: Percent Control
[29] = molecular target: panel of 468 diverse kinases (Homo sapiens, UniProt P21127); conditions: CDC2L1; 1000 nM; read-out: Percent Control
[30] = molecular target: panel of 468 diverse kinases (Homo sapiens, UniProt O75747); conditions: PIK3C2G; 1000 nM; read-out: Percent Control
[31] = molecular target: panel of 468 diverse kinases (Homo sapiens, UniProt Q9NRM7); conditions: LATS2; 1000 nM; read-out: Percent Control

Chain of panel of 468 diverse kinases (Homo sapiens, UniProt P35590) (P35590 22-1138 limits assumed): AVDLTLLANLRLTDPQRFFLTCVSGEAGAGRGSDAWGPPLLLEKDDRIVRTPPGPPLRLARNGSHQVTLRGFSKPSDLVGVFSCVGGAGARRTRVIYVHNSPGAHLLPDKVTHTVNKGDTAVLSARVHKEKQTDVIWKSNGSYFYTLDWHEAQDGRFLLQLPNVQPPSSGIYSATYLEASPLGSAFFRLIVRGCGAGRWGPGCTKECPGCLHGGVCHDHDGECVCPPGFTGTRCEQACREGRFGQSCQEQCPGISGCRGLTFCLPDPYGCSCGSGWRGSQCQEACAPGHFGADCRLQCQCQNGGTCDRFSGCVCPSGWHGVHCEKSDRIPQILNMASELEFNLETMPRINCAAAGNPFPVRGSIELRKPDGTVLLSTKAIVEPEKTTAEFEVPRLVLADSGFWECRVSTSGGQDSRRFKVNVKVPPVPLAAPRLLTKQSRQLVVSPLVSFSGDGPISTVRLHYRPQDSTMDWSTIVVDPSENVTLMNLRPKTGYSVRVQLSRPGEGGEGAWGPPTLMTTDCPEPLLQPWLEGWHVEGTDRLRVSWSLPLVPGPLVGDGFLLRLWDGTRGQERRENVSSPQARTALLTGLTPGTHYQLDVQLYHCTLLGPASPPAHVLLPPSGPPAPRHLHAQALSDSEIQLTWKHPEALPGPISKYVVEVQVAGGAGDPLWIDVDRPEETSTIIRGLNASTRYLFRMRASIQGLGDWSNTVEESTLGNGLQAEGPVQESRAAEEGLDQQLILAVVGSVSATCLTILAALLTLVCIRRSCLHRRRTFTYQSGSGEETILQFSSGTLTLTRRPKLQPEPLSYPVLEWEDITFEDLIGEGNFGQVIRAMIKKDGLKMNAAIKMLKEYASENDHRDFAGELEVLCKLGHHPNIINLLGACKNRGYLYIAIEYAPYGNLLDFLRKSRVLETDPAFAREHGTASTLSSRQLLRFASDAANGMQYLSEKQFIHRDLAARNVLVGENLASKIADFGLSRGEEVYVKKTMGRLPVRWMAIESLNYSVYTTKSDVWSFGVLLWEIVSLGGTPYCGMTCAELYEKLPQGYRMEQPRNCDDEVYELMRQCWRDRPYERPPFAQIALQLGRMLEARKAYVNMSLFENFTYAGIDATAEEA
Chain of panel of 468 diverse kinases (Homo sapiens, UniProt P19525) (P19525 2-551 limits assumed): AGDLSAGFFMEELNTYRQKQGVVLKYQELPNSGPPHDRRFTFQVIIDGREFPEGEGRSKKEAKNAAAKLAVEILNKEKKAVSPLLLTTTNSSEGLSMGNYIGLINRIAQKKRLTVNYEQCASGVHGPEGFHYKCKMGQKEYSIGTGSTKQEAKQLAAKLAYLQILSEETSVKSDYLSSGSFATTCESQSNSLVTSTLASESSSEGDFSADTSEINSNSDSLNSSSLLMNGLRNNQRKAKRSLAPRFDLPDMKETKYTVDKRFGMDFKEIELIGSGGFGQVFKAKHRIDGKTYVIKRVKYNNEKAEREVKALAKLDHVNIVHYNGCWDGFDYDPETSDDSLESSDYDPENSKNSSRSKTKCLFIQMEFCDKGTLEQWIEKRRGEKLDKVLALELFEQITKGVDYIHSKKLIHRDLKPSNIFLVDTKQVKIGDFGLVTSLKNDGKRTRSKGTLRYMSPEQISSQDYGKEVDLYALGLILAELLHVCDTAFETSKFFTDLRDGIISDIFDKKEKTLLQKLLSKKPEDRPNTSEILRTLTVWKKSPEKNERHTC
Chain of panel of 468 diverse kinases (Homo sapiens, UniProt P21709) (P21709 26-976 limits assumed): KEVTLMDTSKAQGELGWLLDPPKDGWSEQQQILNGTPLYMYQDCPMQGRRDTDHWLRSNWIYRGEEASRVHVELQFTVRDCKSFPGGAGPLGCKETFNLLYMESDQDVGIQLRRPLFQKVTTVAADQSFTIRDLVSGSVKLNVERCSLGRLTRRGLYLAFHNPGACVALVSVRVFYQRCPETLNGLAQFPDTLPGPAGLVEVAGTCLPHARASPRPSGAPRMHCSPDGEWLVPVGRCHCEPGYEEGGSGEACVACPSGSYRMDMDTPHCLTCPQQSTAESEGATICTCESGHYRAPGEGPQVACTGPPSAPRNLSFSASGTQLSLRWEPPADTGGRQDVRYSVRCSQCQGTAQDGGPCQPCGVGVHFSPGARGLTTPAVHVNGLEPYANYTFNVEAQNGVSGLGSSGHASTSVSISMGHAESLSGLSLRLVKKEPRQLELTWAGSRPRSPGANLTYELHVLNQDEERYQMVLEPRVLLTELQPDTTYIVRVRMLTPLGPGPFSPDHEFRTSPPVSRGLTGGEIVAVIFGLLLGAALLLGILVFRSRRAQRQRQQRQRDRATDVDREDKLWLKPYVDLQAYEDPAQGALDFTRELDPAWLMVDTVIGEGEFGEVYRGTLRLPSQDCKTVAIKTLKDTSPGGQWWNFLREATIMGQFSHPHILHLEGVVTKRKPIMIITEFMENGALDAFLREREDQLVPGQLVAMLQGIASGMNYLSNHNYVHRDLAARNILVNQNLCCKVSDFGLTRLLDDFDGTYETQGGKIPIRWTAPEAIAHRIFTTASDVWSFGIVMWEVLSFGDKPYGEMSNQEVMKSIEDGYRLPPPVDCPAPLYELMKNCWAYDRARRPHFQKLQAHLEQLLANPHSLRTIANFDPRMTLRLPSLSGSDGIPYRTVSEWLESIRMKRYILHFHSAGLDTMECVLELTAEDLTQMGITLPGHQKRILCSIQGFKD
Chain of panel of 468 diverse kinases (Mycobacterium tuberculosis, UniProt P9WI81) (P9WI81 2-626 limits assumed): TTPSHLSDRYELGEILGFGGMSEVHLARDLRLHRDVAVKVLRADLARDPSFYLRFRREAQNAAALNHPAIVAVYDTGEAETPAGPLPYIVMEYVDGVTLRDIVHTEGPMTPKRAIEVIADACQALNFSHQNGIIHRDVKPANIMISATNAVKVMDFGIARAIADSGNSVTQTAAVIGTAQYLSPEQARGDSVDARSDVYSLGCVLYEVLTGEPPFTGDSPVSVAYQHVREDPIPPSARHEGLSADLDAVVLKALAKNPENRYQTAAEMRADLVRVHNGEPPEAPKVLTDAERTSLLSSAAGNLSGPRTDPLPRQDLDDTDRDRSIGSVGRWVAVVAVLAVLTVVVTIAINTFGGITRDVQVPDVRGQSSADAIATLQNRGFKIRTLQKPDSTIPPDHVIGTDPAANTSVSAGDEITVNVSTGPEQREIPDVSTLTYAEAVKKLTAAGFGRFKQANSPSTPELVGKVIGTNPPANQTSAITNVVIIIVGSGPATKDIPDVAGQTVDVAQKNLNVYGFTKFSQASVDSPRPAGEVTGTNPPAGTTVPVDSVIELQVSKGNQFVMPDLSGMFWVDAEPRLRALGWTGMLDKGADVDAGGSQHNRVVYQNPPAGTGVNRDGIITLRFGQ
Chain of panel of 468 diverse kinases (Homo sapiens, UniProt P29322) (P29322 28-1005 limits assumed): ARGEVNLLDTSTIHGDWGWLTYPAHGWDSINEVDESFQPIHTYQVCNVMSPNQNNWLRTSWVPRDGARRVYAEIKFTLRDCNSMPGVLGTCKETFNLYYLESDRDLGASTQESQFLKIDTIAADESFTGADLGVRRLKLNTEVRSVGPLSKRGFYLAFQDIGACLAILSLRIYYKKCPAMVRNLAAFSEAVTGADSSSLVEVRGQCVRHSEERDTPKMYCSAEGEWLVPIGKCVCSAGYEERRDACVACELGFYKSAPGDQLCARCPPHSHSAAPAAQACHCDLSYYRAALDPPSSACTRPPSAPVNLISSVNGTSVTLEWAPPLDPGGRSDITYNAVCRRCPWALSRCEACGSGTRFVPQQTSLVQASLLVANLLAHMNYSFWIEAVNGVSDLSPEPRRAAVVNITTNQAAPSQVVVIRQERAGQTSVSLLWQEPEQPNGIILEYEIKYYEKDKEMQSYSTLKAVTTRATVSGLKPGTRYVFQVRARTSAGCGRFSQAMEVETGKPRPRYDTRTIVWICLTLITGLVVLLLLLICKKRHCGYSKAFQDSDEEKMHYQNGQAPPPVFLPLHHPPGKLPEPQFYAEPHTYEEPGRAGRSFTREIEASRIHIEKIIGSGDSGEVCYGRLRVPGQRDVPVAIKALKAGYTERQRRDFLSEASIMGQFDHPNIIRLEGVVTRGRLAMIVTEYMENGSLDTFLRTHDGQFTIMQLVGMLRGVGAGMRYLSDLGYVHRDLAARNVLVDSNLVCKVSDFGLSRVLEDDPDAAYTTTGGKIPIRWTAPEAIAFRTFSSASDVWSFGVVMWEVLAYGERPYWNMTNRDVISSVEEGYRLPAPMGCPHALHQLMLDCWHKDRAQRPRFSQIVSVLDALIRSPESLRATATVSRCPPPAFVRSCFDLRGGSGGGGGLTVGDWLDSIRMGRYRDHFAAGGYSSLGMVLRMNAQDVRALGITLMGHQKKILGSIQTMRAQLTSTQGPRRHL
Chain of panel of 468 diverse kinases (Homo sapiens, UniProt O00238) (O00238 14-502 limits assumed): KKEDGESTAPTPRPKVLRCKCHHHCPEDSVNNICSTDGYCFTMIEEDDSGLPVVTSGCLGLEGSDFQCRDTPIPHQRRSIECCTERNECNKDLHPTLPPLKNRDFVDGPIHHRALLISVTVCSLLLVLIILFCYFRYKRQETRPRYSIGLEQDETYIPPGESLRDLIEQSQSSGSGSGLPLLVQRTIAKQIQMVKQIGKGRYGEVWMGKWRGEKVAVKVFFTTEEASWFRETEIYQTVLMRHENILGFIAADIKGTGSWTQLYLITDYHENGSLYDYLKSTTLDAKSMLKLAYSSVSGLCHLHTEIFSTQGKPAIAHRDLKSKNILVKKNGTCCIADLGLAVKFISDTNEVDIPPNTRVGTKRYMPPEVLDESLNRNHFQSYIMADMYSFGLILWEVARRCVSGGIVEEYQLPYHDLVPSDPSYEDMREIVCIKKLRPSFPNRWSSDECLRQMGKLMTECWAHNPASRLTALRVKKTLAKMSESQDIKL

For `COc1cc2nc(NC3CC3)nc(NC3CCN(C(C)C)CC3)c2cc1OC` [Formula IV], the remaining activity at 1 µM [1] was 50%, the “Percent Control” value [2] was 98% and 49% and 80% and 92% and 56% and 57% and the “kinase selectivity using KINOMEscan” value [2] was “extremely high kinase selectivity”. For the same molecule, the remaining activity at 1 µM [3] was 92%, the remaining activity at 1 µM [4] was 93% and the remaining activity at 1 µM [5] was 100%. For the same molecule, the remaining activity at 1 µM [6] was 83%, the remaining activity at 1 µM [7] was 62% and the remaining activity at 1 µM [8] was 100%. It also gave a remaining activity at 1 µM [9] of 100%, a remaining activity at 1 µM ([10]; TYK2(JH1domain-catalytic)) of 37% and a remaining activity at 1 µM ([10]; TYK2(JH2domain-pseudokinase)) of 79%. It also gave a remaining activity at 1 µM [11] of 81%, a remaining activity at 1 µM [12] of 55% and a remaining activity at 1 µM [13] of 97%. It also gave a remaining activity at 1 µM [14] of 69%, a remaining activity at 1 µM [15] of 100% and a remaining activity at 1 µM [16] of 90%. For the same molecule, the remaining activity at 1 µM [17] was 100%, the remaining activity at 1 µM [18] was 100% and the remaining activity at 1 µM [19] was 100%. The remaining activity at 1 µM [20] was 55%, the remaining activity at 1 µM [21] was 81% and the remaining activity at 1 µM [22] was 98%. The remaining activity at 1 µM [23] was 61%, the remaining activity at 1 µM [24] was 100% and the remaining activity at 1 µM [25] was 99%. For the same molecule, the remaining activity at 1 µM [26] was 71%, the remaining activity at 1 µM [27] was 87% and the remaining activity at 1 µM [28] was 99%. The remaining activity at 1 µM [29] was 100%, the remaining activity at 1 µM [30] was 100% and the remaining activity at 1 µM [31] was 95%.
